The test concerns Plasmodium falciparum. Put plainly: Antimicrobial activity against chloroquine-resistant Plasmodium falciparum Smith. It counts as functional. The note with it: read-out: ED50 (the source's name).

The structures appear in SMILES notation. ≈ marks a conversion by molar mass, not a printed value.

With `COC(=O)[C@]12OC[C@]34[C@H]([C@@H](O)[C@@H]1O)[C@@]1(C)CC(=O)C(O)=C(C)[C@@H]1C[C@H]3OC(=O)[C@H](OC(=O)C=C(C)C)[C@@H]24` [BRUSATOL], the EC50 turned out to be 0.00758 µg/mL (≈ 0.0146 µM). The value for `COC(=O)[C@@]12OC[C@]34[C@H]([C@@H](O)[C@@H]1O)[C@@]1(C)C=C(O[C@@H]5O[C@H](CO)[C@@H](O)[C@H](O)[C@H]5O)C(=O)[C@@H](C)[C@@H]1C[C@H]3OC(=O)[C@H](OC(=O)C=C(C)C)[C@@H]24` [BRUCEOSIDE A] was 0.581 µg/mL (≈ 0.851 µM); that for `CCCCCC/C=C/C(=O)O[C@H]1C(=O)O[C@@H]2C[C@H]3C(C)=C(O)C(=O)C[C@]3(C)[C@H]3[C@@H](O)[C@H](O)[C@@]4(C(=O)OC)OC[C@]32[C@@H]14` was 0.0617 µg/mL (≈ 0.107 µM). The value for `COC(=O)[C@@]12OC[C@]34[C@H]([C@@H](O)[C@@H]1O)[C@@]1(C)CC(=O)C(O)=C(C)[C@@H]1C[C@H]3OC(=O)[C@H](O)[C@@H]24` [BRUCEOLIDE] was 0.0752 µg/mL (≈ 0.172 µM).

Values taken from ChEMBL document CHEMBL1150728, “Antimalarial agents, 4. Synthesis of a brusatol analog and biological activity of brusatol-related compounds” (1987).
